Assay results as given in the supplement of paper PMC11061612.

What was measured:
Experiment in all cases: Bliss excess, mean over the matrix (fraction); higher = more synergy
[1] = test system: A704 (Kidney Carcinoma)
Summary of the method: (§1)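 After 24 hours at 37°C and 5% CO2 in 1536-well plates, cells in DMEM/F12 or RPMI plus 10% FBS received two-drug dose matrices for 72 hours. Viability came from CellTiter-Glo 2.0 luminescence and was scaled as inhibition, anchored at 0 by vehicle wells and at 1 by blank wells. Combination Emax is taken as the second-highest inhibition in the matrix, and Bliss excess as the observed combination effect less EA + EB − EA·EB, with EA and EB the single-agent effects.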

[2] = test system: DG-75 (Burkitt's Lymphoma)
Summary of the method: as §1

[3] = test system: EW-13 (Ewing's Sarcoma)
Summary of the method: as §1

[4] = test system: EW-3 (Ewing's Sarcoma)
Summary of the method: as §1

[5] = test system: GOTO (Neuroblastoma)
Summary of the method: as §1

[6] = test system: HC-1 (Other Blood Carcinomas)
Summary of the method: as §1

[7] = test system: IMR-5 (Neuroblastoma)
Summary of the method: as §1

[8] = test system: KP-2 (Pancreatic Carcinoma)
Summary of the method: as §1

[9] = test system: KU-19-19 (Bladder Carcinoma)
Summary of the method: as §1

[10] = test system: NCI-H1573 (Lung Adenocarcinoma)
Summary of the method: as §1

[11] = test system: NCI-H2405 (Lung Adenocarcinoma)
Summary of the method: as §1

[12] = test system: OCUB-M (Breast Carcinoma)
Summary of the method: as §1

[13] = test system: SCC-9 (Oral Cavity Carcinoma)
Summary of the method: as §1

[14] = test system: VMRC-LCD (Lung Adenocarcinoma)
Summary of the method: as §1

SMILES | Bliss excess [1] | Bliss excess [2] | Bliss excess [3] | Bliss excess [4] | Bliss excess [5] | Bliss excess [6] | Bliss excess [7] | Bliss excess [8] | Bliss excess [9] | Bliss excess [10] | Bliss excess [11] | Bliss excess [12] | Bliss excess [13] | Bliss excess [14]
NC1(C(=O)N[C@@H](CCO)c2ccc(Cl)cc2)CCN(c2ncnc3[nH]ccc23)CC1 [Capivasertib] + COc1nnc2ccc(N3CCC(c4ccc(OCCN5CCN(C)C(=O)[C@H]5C)cc4)CC3)nn12 [AZD5153] (first compound max 10 µM, 7x7, partner max 1 µM) | 0.0204 | -0.0133 | 0.0153 | 0.0429 | 0.032 | 0.0365 | 0.0285 | 0.0358 | 0.0272 | -0.0011 | 0.0138 | 0.0223 | 0.0627 | 0.0154
C=CCn1c(=O)c2cnc(Nc3ccc(N4CCN(C)CC4)cc3)nc2n1-c1cccc(C(C)(C)O)n1 [AZD1775] + O=C(c1cc(Cc2n[nH]c(=O)c3ccccc23)ccc1F)N1CCN(C(=O)C2CC2)CC1 [Olaparib] (first compound max 1 µM, partner max 10 µM) | -0.0396 | -0.0491 | -0.0801 | -0.0619 | -0.0271 | -0.0393 | -0.0161 | -0.0145 | -0.0107 | -0.0251 | -0.0675 | -0.0211 | -0.0027 | -0.0597
NC1(C(=O)N[C@@H](CCO)c2ccc(Cl)cc2)CCN(c2ncnc3[nH]ccc23)CC1 [Capivasertib] + CC(=O)c1c(C)c2cnc(Nc3ccc(N4CCNCC4)cn3)nc2n(C2CCCC2)c1=O [Palbociclib] (first compound max 10 µM, 7x7, partner max 10 µM) | -0.0413 | 0.0406 | -0.0161 | 0.0062 | 0.0599 | -0.0705 | 0.0514 | -0.0261 | 0.0041 | -0.0204 | -0.0405 | -0.0127 | 0.0004 | -0.0153
CC1(C)CCC(CN2CCN(c3ccc(C(=O)NS(=O)(=O)c4ccc(NCC5CCOCC5)c([N+](=O)[O-])c4)c(Oc4cnc5[nH]ccc5c4)c3)CC2)=C(c2ccc(Cl)cc2)C1 [Venetoclax] + C1CN(CCC1(C(=O)N[C@@H](CCO)C2=CC=C(C=C2)Cl)N)C3=NC=NC4=C3C=CN4 [Capivasertib] (first compound max 1 µM, 7x7, partner max 3 µM) | -0.079 | -0.0146 | -0.0302 | 0.0001 | 0.0111 | 0.0217 | -0.0486 | -0.0586 | -0.0465 | -0.0733 | -0.0418 | -0.0222 | -0.0438 | -0.0514
CC1(C)CCC(CN2CCN(c3ccc(C(=O)NS(=O)(=O)c4ccc(NCC5CCOCC5)c([N+](=O)[O-])c4)c(Oc4cnc5[nH]ccc5c4)c3)CC2)=C(c2ccc(Cl)cc2)C1 [Venetoclax] + C=CCn1c(=O)c2cnc(Nc3ccc(N4CCN(C)CC4)cc3)nc2n1-c1cccc(C(C)(C)O)n1 [AZD1775] (first compound max 1 µM, partner max 1 µM) | -0.0283 | -0.0575 | -0.0523 | 0.0735 | 0.0047 | 0.0665 | 0.0237 | -0.0068 | -0.023 | -0.0513 | -0.0756 | 0.0062 | -0.0451 | -0.0174
CCc1c2c(nc3ccc(O)cc13)-c1cc3c(c(=O)n1C2)COC(=O)[C@]3(O)CC [SN-38] + CN(C)CCCOc1ccc(-c2ccc3ncc4c(c3c2)n(C2CCOCC2)c(=O)n4C)cn1 [AZD0156] (first compound max 0.3 µM, 7x7, partner max 1 µM) | -0.0533 | 0.0751 | -0.0589 | -0.0679 | -0.0221 | -0.0261 | 0.0314 | 0.0154 | 0.0033 | -0.0359 | -0.0082 | 0.126 | 0.0484 | -0.0338
Cn1cnc2c(F)c(Nc3ccc(Br)cc3Cl)c(C(=O)NOCCO)cc21 [Selumetinib] + C=CCn1c(=O)c2cnc(Nc3ccc(N4CCN(C)CC4)cc3)nc2n1-c1cccc(C(C)(C)O)n1 [AZD1775] (first compound max 10 µM, partner max 1 µM) | -0.0211 | -0.0637 | -0.0742 | -0.0564 | -0.0119 | -0.0702 | 0.0121 | 0.0088 | -0.0308 | -0.0331 | 0.0147 | -0.0399 | 0.0789 | -0.0272
CN(CCO)CC[C@H](CSc1ccccc1)Nc1ccc(S(=O)(=O)NC(=O)c2ccc(N3CCC([C@@H](O)c4ccccc4-c4ccc(Cl)cc4)CC3)cc2)cc1S(=O)(=O)C(F)(F)F [AZD4320] + C[C@@H](Nc1cc(F)cc(F)c1)c1cc(C(=O)N(C)C)cc2c(=O)cc(N3CCOCC3)oc12 [AZD8186] (first compound max 1 µM, 7x7, partner max 3 µM) | -0.117 | 0.0548 | -0.015 | -0.0324 | 0.0279 | 0.0252 | 0.0508 | 0.0419 | 0.0039 | -0.0545 | -0.0239 | 0.0137 | -0.0094 | -0.0206
COc1nnc2ccc(N3CCC(c4ccc(OCCN5CCN(C)C(=O)[C@H]5C)cc4)CC3)nn12 [AZD5153] + CC1(C)CCC(CN2CCN(c3ccc(C(=O)NS(=O)(=O)c4ccc(NCC5CCOCC5)c([N+](=O)[O-])c4)c(Oc4cnc5[nH]ccc5c4)c3)CC2)=C(c2ccc(Cl)cc2)C1 [Venetoclax] (first compound max 1 µM, 7x7, partner max 1 µM) | -0.0016 | -0.063 | 0.0173 | -0.0801 | -0.065 | 0.0089 | -0.0119 | -0.0381 | -0.0567 | -0.0885 | -0.0484 | -0.0299 | -0.0478 | -0.063
Cc1cc2ncnn2cc1Nc1ncc2c(n1)n(C1CCOCC1)c(=O)n2C [AZD7648] + C=CCn1c(=O)c2cnc(Nc3ccc(N4CCN(C)CC4)cc3)nc2n1-c1cccc(C(C)(C)O)n1 [AZD1775] (first compound max 10 µM, partner max 1 µM) | -0.0409 | -0.0652 | 0.0225 | -0.0894 | -0.0421 | -0.106 | -0.0146 | -0.014 | -0.0201 | -0.0215 | -0.0064 | 0.0389 | 0.0332 | -0.0057
COc1nnc2ccc(N3CCC(c4ccc(OCCN5CCN(C)C(=O)[C@H]5C)cc4)CC3)nn12 [AZD5153] + Cc1c2c(nn1C)CSCc1cc(n(C)n1)CSc1cc(c3ccccc3c1)OCCCc1c(C(=O)O)n(C)c3c-2c(Cl)ccc13 [AZD5991] (first compound max 1 µM, 7x7, partner max 1 µM) | -0.0297 | -0.0432 | -0.0502 | 0.0114 | -0.0096 | 0.0424 | -0.0178 | 0.0098 | -0.0634 | 0.0475 | 0.01 | 0.0063 | -0.0322 | 0.0098
CN(CCO)CC[C@H](CSc1ccccc1)Nc1ccc(S(=O)(=O)NC(=O)c2ccc(N3CCC([C@@H](O)c4ccccc4-c4ccc(Cl)cc4)CC3)cc2)cc1S(=O)(=O)C(F)(F)F [AZD4320] + Cc1cc2ncnn2cc1Nc1ncc2c(n1)n(C1CCOCC1)c(=O)n2C [AZD7648] (first compound max 1 µM, 7x7, partner max 10 µM) | -0.0394 | 0.0021 | -0.0223 | 0.015 | 0.075 | 0.0352 | 0.0335 | -0.0338 | -0.0359 | -0.0358 | -0.0351 | 0.0104 | -0.0121 | -0.0595
CN(CCO)CC[C@H](CSc1ccccc1)Nc1ccc(S(=O)(=O)NC(=O)c2ccc(N3CCC([C@@H](O)c4ccccc4-c4ccc(Cl)cc4)CC3)cc2)cc1S(=O)(=O)C(F)(F)F [AZD4320] + C=CCn1c(=O)c2cnc(Nc3ccc(N4CCN(C)CC4)cc3)nc2n1-c1cccc(C(C)(C)O)n1 [AZD1775] (first compound max 1 µM, partner max 1 µM) | 0.0138 | -0.0232 | 0.0172 | 0.11 | -0.0268 | 0.206 | 0.118 | 0.0889 | -0.018 | -0.0052 | -0.0234 | 0.075 | -0.0054 | -0.0459
COc1nnc2ccc(N3CCC(c4ccc(OCCN5CCN(C)C(=O)[C@H]5C)cc4)CC3)nn12 [AZD5153] + C=CCn1c(=O)c2cnc(Nc3ccc(N4CCN(C)CC4)cc3)nc2n1-c1cccc(C(C)(C)O)n1 [AZD1775] (first compound max 1 µM, partner max 1 µM) | -0.0375 | -0.0437 | -0.0239 | -0.122 | -0.0756 | -0.078 | -0.0213 | -0.0288 | -0.121 | -0.0197 | 0.0195 | -0.0224 | 0.0175 | -0.0025
CC1(C)CCC(CN2CCN(c3ccc(C(=O)NS(=O)(=O)c4ccc(NCC5CCOCC5)c([N+](=O)[O-])c4)c(Oc4cnc5[nH]ccc5c4)c3)CC2)=C(c2ccc(Cl)cc2)C1 [Venetoclax] + COc1cc(Nc2ncc3c(n2)-c2ccc(Cl)cc2C(c2c(F)cccc2OC)=NC3)ccc1C(=O)O [Alisertib] (first compound max 1 µM, 7x7, partner max 10 µM) | -0.0913 | 0.028 | 0.0517 | 0.079 | -0.0217 | 0.18 | 0.0402 | -0.0293 | -0.0086 | -0.0266 | -0.0251 | 0.111 | -0.0571 | -0.043
CC1(C)CCC(CN2CCN(c3ccc(C(=O)NS(=O)(=O)c4ccc(NCC5CCOCC5)c([N+](=O)[O-])c4)c(Oc4cnc5[nH]ccc5c4)c3)CC2)=C(c2ccc(Cl)cc2)C1 [Venetoclax] + C[C@@H](Nc1cc(F)cc(F)c1)c1cc(C(=O)N(C)C)cc2c(=O)cc(N3CCOCC3)oc12 [AZD8186] (first compound max 1 µM, 7x7, partner max 3 µM) | -0.0162 | 0.0255 | 0.0349 | 0.0336 | -0.0334 | 0.0693 | 0.0793 | -0.0312 | -0.0402 | -0.0247 | -0.0396 | -0.0082 | -0.0222 | -0.0457
Cc1cc2ncnn2cc1Nc1ncc2c(n1)n(C1CCOCC1)c(=O)n2C [AZD7648] + C[C@@H]1COCCN1C2=NC(=NC(=C2)C3(CC3)[S@](=N)(=O)C)C4=C5C=CNC5=NC=C4 [AZD6738] (first compound max 10 µM, 7x7, partner max 10 µM) | 0.0177 | -0.0477 | 0.0039 | -0.0607 | -0.0205 | -0.131 | 0.0088 | 0.0004 | -0.0127 | 0.0363 | 0.0068 | 0.0509 | 0.0507 | 0.0143
